Reference: patent US9593155B2, “Oxyntomodulin analogs” (priority 2009, dated 2017)
Read-outs that look alike come from different tables or passages of the source. *1 amine or outer side, *2 acyl side, *3 side chain or, on linkers, in order; H or OH if unused. Where a SMILES comes first, the peptide text is derived from it. Bridges are numbered along the chain shown (N, C = ends). Where no end group is shown, it is not given here. Side-chain parts run from the residue outwards. [ ]: non-standard residue; d: D form. The star is where a group is joined. ξ: configuration not given here. C10 = S-[42-(cholest-5-en-3-yloxy)-2,42-dioxo-6,9,12,15,18,21,24,27,30,33,36,39-dodecaoxa-3-azadotetracont-1-yl]-L-cysteine, Cys(oxa12-cholesterol), CC(C)CCC[C@@H](C)[C@H]1CC[C@H]2[C@@H]3CC=C4C[C@@H](OC(=O)CCOCCOCCOCCOCCOCCOCCOCCOCCOCCOCCOCCOCCNC(=O)CSC[C@H](N[*:1])C(=O)[*:2])CC[C@]4(C)[C@H]3CC[C@]12C; X1 = CC(C)CCCC(C)[C@H]1CCC2C3CC=C4C[C@@H](OC(=O)CCOCCOCCOCCOCCOCCOCCOCCOCCOCCOCCOCCOCCNC(=O)C*)CC[C@]4(C)C3CC[C@@]21C; CH2CO2(3ξ-cholesteryl) = CC(C)CCC[C@@H](C)[C@H]1CC[C@H]2[C@@H]3CC=C4CC(OC(=O)C*)CC[C@]4(C)[C@H]3CC[C@]12C; γGlu = O=C(O)[C@H](CCC(=O)[*:2])N[*:1]; mPEG2 40kDa = C3 = Cys(mPEG)2 40 kDa; Palmitoyl = CCCCCCCCCCCCCCCC(=O)*; Met(O) = CS(=O)CC[C@H](N)C(=O)O; Nle = CCCC[C@H](N)C(=O)O; Ac4c = NC1(C(=O)O)CCC1; Aib = CC(C)(N)C(=O)O

Columns and labels:
[1] = pI of the peptide analogs
hGCGR = hGCGR (Homo sapiens, UniProt P47871); assay: fluorescence cell based cAMP assay, CHO cells stably expressing GCGR; conditions: for Receptor Selectivity: GLP-1R/GCGR, Table 6; for GCGR + 10% plasma (fold shift): EC50 with 10% plasma vs without
Protocol: We initially screened peptides in fluorescence cell based assays that measure production of cyclic-AMP (cAMP), using CHO cell lines stably expressing either recombinant human GLP-1R or human GCGR. Determination of Mouse and human GLP-1R and GCGR Agonist Activity was essentially as follows. CHO cells stably expressing mouse or human GLP-1R or GCGR were grown in Iscove's Modified Dulbecco's Medium (IMDM), 10% FBS, 1 mM L-glutamine, penicillin-streptomycin (100 μ/mL) and 750 μg G418/mL for three-four days before harvesting using Enzymefree Dissociation Media (EFDM, Specialty Media). […] The assay was terminated with the addition of the LANCE kit Detection buffer as per the manufacturer's instructions. The plates were held an additional hour at room temperature, then increasing cAMP levels were detected by a decrease in TR-FRET signal as measured in an EnVision counter (PerkinElmer) in comparison to a standard curve of cAMP as per the manufacturer's instructions. Data were analyzed using the linear and nonlinear regression analysis software, GraphPad Prism.
The in vitro potencies shown in Table 10 or Table 11 were determined from the results of assays that were similar to either the cell-based cAMP assays described herein above (Table 10) or the cell-based cAMP assays described in International Published Application No. WO2008101017, which is incorporated herein in its entirety, in particular the cell-based cAMP assays described therein (Table 11).

Sequence of hGCGR (P47871 26-477): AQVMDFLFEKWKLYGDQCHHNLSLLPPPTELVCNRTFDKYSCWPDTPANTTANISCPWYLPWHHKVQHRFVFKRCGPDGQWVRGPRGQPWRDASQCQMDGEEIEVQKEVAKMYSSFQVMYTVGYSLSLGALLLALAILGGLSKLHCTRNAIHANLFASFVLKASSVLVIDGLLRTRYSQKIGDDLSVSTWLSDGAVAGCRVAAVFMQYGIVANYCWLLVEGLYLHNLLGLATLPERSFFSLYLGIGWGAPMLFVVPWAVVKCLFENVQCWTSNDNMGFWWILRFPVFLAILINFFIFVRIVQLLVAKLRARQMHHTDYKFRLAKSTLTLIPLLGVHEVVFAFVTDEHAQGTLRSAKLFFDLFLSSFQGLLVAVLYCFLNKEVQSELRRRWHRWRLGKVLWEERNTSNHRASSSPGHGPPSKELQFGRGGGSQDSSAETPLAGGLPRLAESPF

pI ([1]; Table 10)	Compound	pI [1]	further results
5.5	CCCCCCCCCCCCCCCC(=O)N[C@@H](CCC(=O)N[C@@H](CCC(=O)NCCCC[C@H](NC(=O)[C@H](CC(=O)O)NC(=O)[C@H](CO)NC(=O)[C@@H](NC(=O)[C@H](Cc1ccccc1)NC(=O)[C@@H](NC(=O)CNC(=O)[C@H](CCC(N)=O)NC(=O)C(C)(C)NC(=O)[C@@H](N)Cc1c[nH]cn1)[C@@H](C)O)[C@@H](C)O)C(=O)N[C@@H](CO)C(=O)N[C@@H](CCCCN)C(=O)N[C@@H](Cc1ccc(O)cc1)C(=O)N[C@@H](CC(C)C)C(=O)N[C@@H](CC(=O)O)C(=O)N[C@@H](CCC(=O)O)C(=O)N[C@@H](CCCNC(=N)N)C(=O)N[C@@H](CCCNC(=N)N)C(=O)N[C@@H](C)C(=O)N[C@@H](CCC(N)=O)C(=O)N[C@@H](CC(=O)O)C(=O)N[C@@H](Cc1ccccc1)C(=O)N[C@H](C(=O)N[C@@H](CCC(N)=O)C(=O)N[C@@H](Cc1c[nH]c2ccccc12)C(=O)N[C@@H](CC(C)C)C(=O)N[C@@H](CCSC)C(=O)N[C@@H](CC(N)=O)C(=O)N[C@H](C(=O)N[C@@H](CCCCN)C(N)=O)[C@@H](C)O)C(C)C)C(=O)O)C(=O)O [OXM416] (H-H[Aib]QGTFTSDK([γGlu-γGlu-Palmitoyl])SKYLDERRAQDFVQWLMNTK-NH2)		
5.5	CCCCCCCCCCCCCCCC(=O)N[C@@H](CCC(=O)N[C@@H](CCC(=O)NCCCC[C@H](NC(=O)[C@H](CC(=O)O)NC(=O)[C@H](CO)NC(=O)[C@@H](NC(=O)[C@H](Cc1ccccc1)NC(=O)[C@@H](NC(=O)CNC(=O)[C@H](CCC(N)=O)NC(=O)C1(NC(=O)[C@@H](N)Cc2c[nH]cn2)CCC1)[C@@H](C)O)[C@@H](C)O)C(=O)N[C@@H](CO)C(=O)N[C@@H](CCCCN)C(=O)N[C@@H](Cc1ccc(O)cc1)C(=O)N[C@@H](CC(C)C)C(=O)N[C@@H](CC(=O)O)C(=O)N[C@@H](CCC(=O)O)C(=O)N[C@@H](CCCNC(=N)N)C(=O)N[C@@H](CCCNC(=N)N)C(=O)N[C@@H](C)C(=O)N[C@@H](CCC(N)=O)C(=O)N[C@@H](CC(=O)O)C(=O)N[C@@H](Cc1ccccc1)C(=O)N[C@H](C(=O)N[C@@H](CCC(N)=O)C(=O)N[C@@H](Cc1c[nH]c2ccccc12)C(=O)N[C@@H](CC(C)C)C(=O)N[C@@H](CCSC)C(=O)N[C@@H](CC(N)=O)C(=O)N[C@H](C(=O)N[C@@H](CCCCN)C(N)=O)[C@@H](C)O)C(C)C)C(=O)O)C(=O)O [OXM417] (H-H[Ac4c]QGTFTSDK([γGlu-γGlu-Palmitoyl])SKYLDERRAQDFVQWLMNTK-NH2)		EC50 (hGCGR; hGCGR + 20% plasma EC50, Table 10, 20% plasma): 400 pM
	H-Acb-QGTFTSDYSKYLDERRAKDFVQWLMNTK-γE-γE-C10-COOH (lactam bridge between E and K) (H-H[Ac4c]QGTFTSDYSKYLDERRAKDFVQWLMNTK[γGlu][γGlu][C10]-OH; lactam 16-20) [OXM398]	about 5.4	
	HαQGTFTSDYSC3YLDSRRAQDFVQWLmNTKRNRNNIA-CONH2 (H[Aib]QGTFTSDYSC(mPEG2 40kDa)YLDSRRAQDFVQWL[Met(O)]NTKRNRNNIA-NH2; not fully specified; printed as HαQGTFTSDYSC3YLDSRRAQDFVQWLmNTKRNRNNIA-CONH2) [OXM124]		Receptor Selectivity (hGCGR): 0/0
	CCCC[C@H](NC(=O)[C@H](CC(C)C)NC(=O)[C@H](Cc1c[nH]c2ccccc12)NC(=O)[C@H](CCC(N)=O)NC(=O)[C@@H](NC(=O)[C@H](Cc1ccccc1)NC(=O)[C@H](CC(=O)O)NC(=O)[C@H](CCC(N)=O)NC(=O)[C@H](C)NC(=O)[C@H](CCCNC(=N)N)NC(=O)[C@H](CCCNC(=N)N)NC(=O)[C@H](CO)NC(=O)[C@H](CC(=O)O)NC(=O)[C@H](CC(C)C)NC(=O)[C@H](Cc1ccc(O)cc1)NC(=O)[C@H](CCCCN)NC(=O)[C@H](CO)NC(=O)[C@H](Cc1ccc(O)cc1)NC(=O)[C@H](CC(=O)O)NC(=O)[C@H](CO)NC(=O)[C@@H](NC(=O)[C@H](Cc1ccccc1)NC(=O)[C@@H](NC(=O)CNC(=O)[C@H](CCC(N)=O)NC(=O)C(C)(C)NC(=O)[C@@H](N)Cc1c[nH]cn1)[C@@H](C)O)[C@@H](C)O)C(C)C)C(=O)N[C@@H](CC(N)=O)C(=O)N[C@H](C(=O)N[C@@H](CCCCN)C(=O)N[C@@H](CCCNC(=N)N)C(=O)N[C@@H](CC(N)=O)C(=O)N[C@@H](CCCNC(=N)N)C(=O)N[C@@H](CC(N)=O)C(=O)N[C@@H](CC(N)=O)C(=O)N[C@H](C(=O)N[C@@H](C)C(=O)N[C@@H](CSCC(=O)OC1CC[C@@]2(C)C(=CC[C@H]3[C@@H]4CC[C@H]([C@H](C)CCCC(C)C)[C@@]4(C)CC[C@@H]32)C1)C(N)=O)[C@@H](C)CC)[C@@H](C)O (stereo partly drawn) [OXM212] (H-H[Aib]QGTFTSDYSKYLDSRRAQDFVQWL[Nle]NTKRNRNNIAC(CH2CO2(3ξ-cholesteryl))-NH2; N-terminus assumed)		GCGR + 10% plasma (fold shift) (hGCGR): (92x) fold
5.4	CCCCCCCCCCCCCCCC(=O)N[C@@H](CCC(=O)NCCCC[C@H](NC(=O)[C@H](CC(=O)O)NC(=O)[C@H](CO)NC(=O)[C@@H](NC(=O)[C@H](Cc1ccccc1)NC(=O)[C@@H](NC(=O)CNC(=O)[C@H](CCC(N)=O)NC(=O)[C@@H](CO)NC(=O)[C@@H](N)Cc1c[nH]cn1)[C@@H](C)O)[C@@H](C)O)C(=O)N[C@@H](CO)C(=O)N[C@@H](CCCCN)C(=O)N[C@@H](Cc1ccc(O)cc1)C(=O)N[C@@H](CC(C)C)C(=O)N[C@@H](CC(=O)O)C(=O)N[C@@H](CCC(=O)O)C(=O)N[C@@H](CCCNC(=N)N)C(=O)N[C@@H](CCCNC(=N)N)C(=O)N[C@@H](C)C(=O)N[C@@H](CCC(N)=O)C(=O)N[C@@H](CC(=O)O)C(=O)N[C@@H](Cc1ccccc1)C(=O)N[C@H](C(=O)N[C@@H](CCC(N)=O)C(=O)N[C@@H](Cc1c[nH]c2ccccc12)C(=O)N[C@@H](CC(C)C)C(=O)N[C@@H](CCSC)C(=O)N[C@@H](CC(N)=O)C(=O)N[C@H](C(=O)N[C@@H](CCCCN)C(=O)N[C@@H](CCC(N)=O)C(=O)O)[C@@H](C)O)C(C)C)C(=O)O [OXM414] (H-H[dS]QGTFTSDK([γGlu-Palmitoyl])SKYLDERRAQDFVQWLMNTKQ-OH; N-terminus and C-terminus assumed)		
	CC[C@H](C)[C@H](NC(=O)[C@H](CC(N)=O)NC(=O)[C@H](CC(N)=O)NC(=O)[C@H](CCCNC(=N)N)NC(=O)[C@H](CC(N)=O)NC(=O)[C@H](CCCNC(=N)N)NC(=O)[C@H](CCCCN)NC(=O)[C@@H](NC(=O)[C@H](CC(N)=O)NC(=O)[C@H](CCOC)NC(=O)[C@H](CC(C)C)NC(=O)[C@H](Cc1c[nH]c2ccccc12)NC(=O)[C@H](CCC(N)=O)NC(=O)[C@@H](NC(=O)[C@H](Cc1ccccc1)NC(=O)[C@H](CC(=O)O)NC(=O)[C@H](CCC(N)=O)NC(=O)[C@H](C)NC(=O)[C@H](CCCNC(=N)N)NC(=O)[C@H](CCCNC(=N)N)NC(=O)[C@H](CO)NC(=O)[C@H](CC(=O)O)NC(=O)[C@H](CC(C)C)NC(=O)[C@H](Cc1ccc(O)cc1)NC(=O)[C@H](CCCCN)NC(=O)[C@H](CO)NC(=O)[C@H](Cc1ccc(O)cc1)NC(=O)[C@H](CC(=O)O)NC(=O)[C@H](CO)NC(=O)[C@@H](NC(=O)[C@H](Cc1ccccc1)NC(=O)[C@@H](NC(=O)CNC(=O)[C@H](CCC(N)=O)NC(=O)C(C)(C)NC(=O)[C@@H](N)Cc1c[nH]cn1)[C@@H](C)O)[C@@H](C)O)C(C)C)[C@@H](C)O)C(=O)N[C@@H](C)C(=O)N[C@@H](CSCC(=O)OC1CC[C@@]2(C)C(=CC[C@H]3[C@@H]4CC[C@H]([C@H](C)CCCC(C)C)[C@@]4(C)CC[C@@H]32)C1)C(N)=O (stereo partly drawn) [OXM213]		GCGR + 10% plasma (fold shift) (hGCGR): (44x) fold
	HαQGTFTSDYC3KYLDSRRAQDFVQWLmNTKRNRNNIA-CONH2 (H[Aib]QGTFTSDYC(mPEG2 40kDa)KYLDSRRAQDFVQWL[Met(O)]NTKRNRNNIA-NH2; not fully specified; printed as HαQGTFTSDYC3KYLDSRRAQDFVQWLmNTKRNRNNIA-CONH2) [OXM121]		Receptor Selectivity (hGCGR): 0/0
	HsQGTFTSDYSSYLDSRRAQDFVQWLMNTK-γE-C4-COOH [OXM355]	about 5	

Compound	pI ([1]; Table 10)	pI [1]	further results
CSCC[C@H](NC(=O)[C@H](CC(C)C)NC(=O)[C@H](Cc1c[nH]c2ccccc12)NC(=O)[C@H](CCC(N)=O)NC(=O)[C@@H](NC(=O)[C@H](Cc1ccccc1)NC(=O)[C@H](CC(=O)O)NC(=O)[C@@H]1CCCCNC(=O)CC[C@H](NC(=O)[C@H](CC(=O)O)NC(=O)[C@H](CC(C)C)NC(=O)[C@H](Cc2ccc(O)cc2)NC(=O)[C@H](CCCCN)NC(=O)[C@H](CO)NC(=O)[C@H](Cc2ccc(O)cc2)NC(=O)[C@H](CC(=O)O)NC(=O)[C@H](CO)NC(=O)[C@@H](NC(=O)[C@H](Cc2ccccc2)NC(=O)[C@@H](NC(=O)CNC(=O)[C@H](CCC(N)=O)NC(=O)[C@@H](CO)NC(=O)[C@@H](N)Cc2c[nH]cn2)[C@@H](C)O)[C@@H](C)O)C(=O)N[C@@H](CCCNC(=N)N)C(=O)N[C@@H](CCCNC(=N)N)C(=O)N[C@@H](C)C(=O)N1)C(C)C)C(=O)N[C@@H](CC(N)=O)C(=O)N[C@H](C(=O)N[C@@H](CCCCN)C(=O)N[C@@H](CCC(=O)N[C@@H](CCC(=O)N[C@@H](CSCC(=O)NCCOCCOCCOCCOCCOCCOCCOCCOCCOCCOCCOCCOCCC(=O)O[C@H]1CC[C@@]2(C)C(=CCC3C2CC[C@@]2(C)C3CC[C@@H]2C(C)CCCC(C)C)C1)C(=O)O)C(=O)O)C(=O)O)[C@@H](C)O (stereo partly drawn) [OXM392] (H-H[dS]QGTFTSDYSKYLDERRAKDFVQWLMNTK[γGlu][γGlu]C(X1)-OH; lactam 16-20)	5.4	about 5.4	
